These results are taken from US20260022143A1, “Cyclic Peptide Inhibitors of IL-23” (JANSSEN PHARMACEUTICA NV, priority 2022, published 2026).

Structures are written as SMILES. Starred links: 1 amine or outer side, 2 acyl side, 3 side chain; linkers in the order of their positions; H or OH if unused. Positions of bridges follow the written chain, without caps; N, C: chain ends. Non-standard residues stand in square brackets, D forms with d. Residues, ends and D or L forms follow the SMILES beside them. ξ: configuration not given here. *: point of attachment. X6 = C[N+](C)(C)CCCCCCCc1cn(-c2ccc(C[C@H](N[*:1])C(=O)[*:2])cc2)nn1; Me3N+(CH2)2O(CH2)2O(CH2)2CO = C[N+](C)(C)CCOCCOCCC(=O)*; Trp(7-Me) = Cc1cccc2c(C[C@H](N)C(=O)O)c[nH]c12; 2Nal = N[C@@H](Cc1ccc2ccccc2c1)C(=O)O; 3Pal = N[C@@H](Cc1cccnc1)C(=O)O; ξThr(3R) = C[C@@H](O)C(N)C(=O)O; Lys(Me) = CNCCCC[C@H](N)C(=O)O; Pen = CC(C)(S)[C@H](N)C(=O)O; Thp = NC1(C(=O)O)CCOCC1; X3 = C[N+](C)(C)CCCCC*; Sar = CNCC(=O)O

The nature of series [1]: Exposed Polar Surface Area (EPSA). As to conditions: SFC on Chirex 3014 column; sample 1 mM DMSO stock; read-out: EPSA. Type of series: physicochemical. The method in brief:
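Retention-based polarity: supercritical CO2 with 20 mM ammonium formate in MeOH (5–60%, 20%/min), Chirex 3014 column, 35 °C. Calibrated against 8 standards to give EPSA (Å^2); each sample measured twice.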

Series [2] has as its target T1, IL-23R (Homo sapiens, UniProt Q5VWK5).
T1 construct: host or cells: HEK293
T1 sequence (Q5VWK5 24-629): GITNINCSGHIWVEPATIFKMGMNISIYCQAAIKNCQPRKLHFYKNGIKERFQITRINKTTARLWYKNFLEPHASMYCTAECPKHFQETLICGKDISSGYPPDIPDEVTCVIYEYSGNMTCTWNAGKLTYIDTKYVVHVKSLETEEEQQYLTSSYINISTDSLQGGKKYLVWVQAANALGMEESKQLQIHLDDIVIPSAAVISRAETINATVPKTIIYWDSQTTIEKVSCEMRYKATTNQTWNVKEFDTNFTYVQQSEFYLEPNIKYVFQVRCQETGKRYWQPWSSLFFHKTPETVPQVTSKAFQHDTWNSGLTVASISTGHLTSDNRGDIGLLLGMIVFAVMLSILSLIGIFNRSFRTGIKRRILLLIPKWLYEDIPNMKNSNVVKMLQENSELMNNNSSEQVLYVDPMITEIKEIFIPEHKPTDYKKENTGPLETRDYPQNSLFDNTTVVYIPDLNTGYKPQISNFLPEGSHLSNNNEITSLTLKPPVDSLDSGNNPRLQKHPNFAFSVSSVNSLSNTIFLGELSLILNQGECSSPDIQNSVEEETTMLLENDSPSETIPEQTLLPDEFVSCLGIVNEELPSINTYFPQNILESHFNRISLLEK
The series is described as follows: IL23R Reporter Assay. Type of series: cell-based. As to conditions: HEK293 cells containing IL-23R, IL-12RP1 and STAT-inducible firefly luciferase reporter; 10 ng/mL IL-23 (EC90); 5 h at 37° C.; read-out: IL23R Reporter Assay. On the technique in general: A reporter such as luciferase makes a cellular process visible.

As for `CC(=O)N(C)CCCC[C@@H]1NC(=O)[C@H](Cc2c[nH]c3c(C)cccc23)NC(=O)[C@H]([C@@H](C)O)NC(=O)[C@H](CC(=O)N(C)C)NC(=O)[C@@H](NC(=O)CCOCCOCC[N+](C)(C)C)CSSC[C@@H](C(=O)N[C@@H](Cc2ccc(OCCCCC[N+](C)(C)C)cc2)C(=O)N[C@@H](Cc2ccc3ccccc3c2)C(=O)NC2(C(=O)N[C@@H](CCCCN(C)C(C)=O)C(=O)N[C@@H](CC(N)=O)C(=O)N[C@@H](Cc3cccnc3)C(=O)N(C)CC(=O)N(C)C)CCOCC2)NC1=O` [compound 483, cPEG3aCO-C(3)-N(N(Me)2)-T-7MeW-K(NMeAc)-C(3)-TMAPF-2Nal-THP-K(NMeAc)-N-3Pya-Sar-CON(Me)2] ({Me3N+(CH2)2O(CH2)2O(CH2)2CO}-CD(NMe2)T[Trp(7-Me)][Lys(Me)](Ac)CY(X3)[2Nal][Thp][Lys(Me)](Ac)N[3Pal][Sar]-NMe2; disulfide 1-6), in series [1], the EPSA is 165 A^2. In addition, in series [2], the IC50 came out at 3.8 nM.

On to `CC(=O)N(C)CCCC[C@@H]1NC(=O)[C@H](Cc2c[nH]c3c(C)cccc23)NC(=O)[C@H]([C@@H](C)O)NC(=O)[C@H](CC(=O)N(C)C)NC(=O)[C@@H](NC(=O)CCOCCOCC[N+](C)(C)C)C(C)(C)SSC(C)(C)[C@@H](C(=O)N[C@@H](Cc2ccc(OCCCCC[N+](C)(C)C)cc2)C(=O)N[C@@H](Cc2ccc3ccccc3c2)C(=O)NC2(C(=O)N[C@@H](CCCCN(C)C(C)=O)C(=O)N[C@@H](CC(N)=O)C(=O)N[C@@H](Cc3cccnc3)C(=O)N(C)CC(=O)N(C)C)CCOCC2)NC1=O` [compound 484, cPEG3aCO-C(3)-N(N(Me)2)-T-7MeW-K(NMeAc)-Pen(3)-TMAPF-2Nal-THP-K(NMeAc)-N-3Pya-Sar-CON(Me)2] ({Me3N+(CH2)2O(CH2)2O(CH2)2CO}-[Pen]D(NMe2)T[Trp(7-Me)][Lys(Me)](Ac)[Pen]Y(X3)[2Nal][Thp][Lys(Me)](Ac)N[3Pal][Sar]-NMe2; disulfide 1-6), for which, in series [1], the EPSA turned out to be 163 A^2. In series [2], the IC50 was found to be 3.1 nM.

Take `CC(=O)N(C)CCCC[C@@H]1NC(=O)[C@H](Cc2c[nH]c3c(C)cccc23)NC(=O)[C@H]([C@@H](C)O)NC(=O)[C@H](CC(=O)N(C)C)NC(=O)[C@@H](NC(=O)CCOCCOCC[N+](C)(C)C)C(C)(C)SSC(C)(C)[C@@H](C(=O)N[C@@H](Cc2ccc(-n3cc(CCCCCCC[N+](C)(C)C)nn3)cc2)C(=O)N[C@@H](Cc2ccc3ccccc3c2)C(=O)NC2(C(=O)N[C@@H](CCCCN(C)C(C)=O)C(=O)N[C@@H](CC(N)=O)C(=O)N[C@@H](Cc3cccnc3)C(=O)N(C)CC(=O)N(C)C)CCOCC2)NC1=O` [compound 486, cPEG3aCO-Pen(3)-N(N(Me)2)-T-7MeW-K(NMeAc)-Pen(3)-F(4TzlTMA7)-2Nal-THP-K(NMeAc)-N-3Pya-Sar-CON(Me)2] ({Me3N+(CH2)2O(CH2)2O(CH2)2CO}-[Pen]D(NMe2)T[Trp(7-Me)][Lys(Me)](Ac)[Pen][X6][2Nal][Thp][Lys(Me)](Ac)N[3Pal][Sar]-NMe2; disulfide 1-6): the EPSA in series [1] came out at 164 A^2. Further, in series [2], the IC50 turned out to be 4.4 nM.

For `CC(=O)N(C)CCCC[C@H](NC(=O)[C@H](CC(C)C)NC(=O)[C@H](Cc1ccc2ccccc2c1)NC(=O)[C@H](Cc1ccc(OCCCCC[N+](C)(C)C)cc1)NC(=O)[C@H]1NC(=O)[C@H](CCCCN(C)C(C)=O)NC(=O)[C@H](Cc2c[nH]c3c(C)cccc23)NC(=O)C([C@@H](C)O)NC(=O)[C@H](CC(=O)N(C)C)NC(=O)[C@@H](NC(=O)CCOCCOCC[N+](C)(C)C)C(C)(C)SSC1(C)C)C(=O)N[C@@H](CC(N)=O)C(=O)N[C@@H](Cc1cccnc1)C(=O)N(C)CC(=O)N(C)C` (stereo partly drawn) [compound 487, cPEG3aCO-Pen(3)-N(N(Me)2)-T-7MeW-K(NMeAc)-Pen(3)-TMAPf-2Nal-L-K(NMeAc)-N-3Pya-Sar-CON(Me)2] ({Me3N+(CH2)2O(CH2)2O(CH2)2CO}-[Pen]D(NMe2)[ξThr(3R)][Trp(7-Me)][Lys(Me)](Ac)[Pen]Y(X3)[2Nal]L[Lys(Me)](Ac)N[3Pal][Sar]-NMe2; disulfide 1-6), in series [1], the EPSA worked out at 164 A^2. In addition, the IC50 in series [2] stood at 3.4 nM.

For the compound `CC(=O)N(C)CCCC[C@H](NC(=O)[C@H](C)NC(=O)[C@H](Cc1ccc2ccccc2c1)NC(=O)[C@H](Cc1ccc(OCCCCC[N+](C)(C)C)cc1)NC(=O)[C@H]1NC(=O)[C@H](CCCCN(C)C(C)=O)NC(=O)[C@H](Cc2c[nH]c3c(C)cccc23)NC(=O)C([C@@H](C)O)NC(=O)[C@H](CC(=O)N(C)C)NC(=O)[C@@H](NC(=O)CCOCCOCC[N+](C)(C)C)C(C)(C)SSC1(C)C)C(=O)N[C@@H](CC(N)=O)C(=O)N[C@@H](Cc1cccnc1)C(=O)N(C)CC(=O)N(C)C` (stereo partly drawn) [compound 488, cPEG3aCO-Pen(3)-N(N(Me)2)-T-7MeW-K(NMeAc)-Pen(3)-TMAPf-2Nal-A-K(NMeAc)-N-3Pya-Sar-CON(Me)2] ({Me3N+(CH2)2O(CH2)2O(CH2)2CO}-[Pen]D(NMe2)[ξThr(3R)][Trp(7-Me)][Lys(Me)](Ac)[Pen]Y(X3)[2Nal]A[Lys(Me)](Ac)N[3Pal][Sar]-NMe2; disulfide 1-6), the EPSA in series [1] is 165 A^2. Also, the IC50 in series [2] came to 5.7 nM.

Turning to `CC(=O)N(C)CCCC[C@H](NC(=O)C1(NC(=O)[C@H](Cc2ccc3ccccc3c2)NC(=O)[C@H](Cc2ccc(OCCCCC[N+](C)(C)C)cc2)NC(=O)[C@H]2NC(=O)[C@H](CC(C)C)NC(=O)[C@H](Cc3c[nH]c4c(C)cccc34)NC(=O)[C@H]([C@@H](C)O)NC(=O)[C@H](CC(=O)N(C)C)NC(=O)[C@@H](NC(=O)CCOCCOCC[N+](C)(C)C)C(C)(C)SSC2(C)C)CCOCC1)C(=O)N[C@@H](CC(N)=O)C(=O)N[C@@H](Cc1cccnc1)C(=O)N(C)CC(=O)N(C)C` [compound 489, cPEG3aCO-Pen(3)-N(N(Me)2)-T-7MeW-L-Pen(3)-TMAPF-2Nal-THP-K(NMeAc)-N-3Pya-Sar-CON(Me)2] ({Me3N+(CH2)2O(CH2)2O(CH2)2CO}-[Pen]D(NMe2)T[Trp(7-Me)]L[Pen]Y(X3)[2Nal][Thp][Lys(Me)](Ac)N[3Pal][Sar]-NMe2; disulfide 1-6), the EPSA in series [1] worked out at 164 A^2. Moreover, the IC50 in series [2] was 3.7 nM.

Consider `CC(=O)NCCCC[C@@H]1NC(=O)[C@H](Cc2c[nH]c3c(C)cccc23)NC(=O)[C@H]([C@@H](C)O)NC(=O)[C@H](CC(N)=O)NC(=O)[C@@H](NC(=O)COCCOCCNC(=O)COCCOCCNC(=O)CCCc2ccc(I)cc2)C(C)(C)SSC(C)(C)[C@@H](C(=O)N[C@@H](Cc2ccc(OCCCCC[N+](C)(C)C)cc2)C(=O)N[C@@H](Cc2ccc3ccccc3c2)C(=O)NC2(C(=O)N[C@@H](CCCCNC(C)=O)C(=O)N[C@@H](CC(N)=O)C(=O)N[C@@H](Cc3cccnc3)C(=O)N(C)CC(N)=O)CCOCC2)NC1=O` [compound 491, IPBPEG2PEG2CO-Pen(3)-N-T-7MeW-K(Ac)-Pen(3)-TMAPF-2Nal-THP-K(Ac)-N-3Pya-Sar-CONH2], for which, in series [1], the EPSA is 168 A^2. In addition, the IC50 in series [2] was found to be 8.3 nM.

Turning to `CC(=O)N(C)CCCC[C@H](NC(=O)C1(NC(=O)[C@H](Cc2ccc3ccccc3c2)NC(=O)[C@H](Cc2ccc(OCCCCC[N+](C)(C)C)cc2)NC(=O)[C@H]2NC(=O)[C@H](C)NC(=O)[C@H](Cc3c[nH]c4c(C)cccc34)NC(=O)[C@H]([C@@H](C)O)NC(=O)[C@H](CC(=O)N(C)C)NC(=O)[C@@H](NC(=O)CCOCCOCC[N+](C)(C)C)C(C)(C)SSC2(C)C)CCOCC1)C(=O)N[C@@H](CC(N)=O)C(=O)N[C@@H](Cc1cccnc1)C(=O)N(C)CC(=O)N(C)C` [compound 492, cPEG3aCO-Pen(3)-N(N(Me)2)-T-7MeW-A-Pen(3)-TMAPF-2Nal-THP-K(NMeAc)-N-3Pya-Sar-CON(Me)2] ({Me3N+(CH2)2O(CH2)2O(CH2)2CO}-[Pen]D(NMe2)T[Trp(7-Me)]A[Pen]Y(X3)[2Nal][Thp][Lys(Me)](Ac)N[3Pal][Sar]-NMe2; disulfide 1-6), the EPSA in series [1] stood at 165 A^2. The IC50 in series [2] turned out to be 6.4 nM.

Consider `CC(=O)N(C)CCCC[C@@H]1NC(=O)[C@H](Cc2c[nH]c3c(C)cccc23)NC(=O)[C@H](C)NC(=O)[C@H](CC(=O)N(C)C)NC(=O)[C@@H](NC(=O)CCOCCOCC[N+](C)(C)C)C(C)(C)SSC(C)(C)[C@@H](C(=O)N[C@@H](Cc2ccc(OCCCCC[N+](C)(C)C)cc2)C(=O)N[C@@H](Cc2ccc3ccccc3c2)C(=O)NC2(C(=O)N[C@@H](CCCCN(C)C(C)=O)C(=O)N[C@@H](CC(N)=O)C(=O)N[C@@H](Cc3cccnc3)C(=O)N(C)CC(=O)N(C)C)CCOCC2)NC1=O` [compound 494, cPEG3aCO-Pen(3)-N(N(Me)2)-A-7MeW-K(NMeAc)-Pen(3)-TMAPF-2Nal-THP-K(NMeAc)-N-3Pya-Sar-CON(Me)2] ({Me3N+(CH2)2O(CH2)2O(CH2)2CO}-[Pen]D(NMe2)A[Trp(7-Me)][Lys(Me)](Ac)[Pen]Y(X3)[2Nal][Thp][Lys(Me)](Ac)N[3Pal][Sar]-NMe2; disulfide 1-6), for which the EPSA in series [1] was 133 A^2. Further, the IC50 in series [2] came to 12 nM.
